We go through 15 molecules from patent US8853246B2 (Dow AgroSciences LLC, priority 2009, dated 2014).

Series [1] has as its system Sweetpotato Whitefly-Crawler (Bemisia Tabaci). The series is described as follows: Insecticidal test for sweetpotato whitefly-crawler in foliar spray assay (col. BEMITA). The note with it: sweetpotato whitefly-crawler; for pest or weed control at 200 ppm: Bemisia tabaci, read-out: BEMITA 200 ppm (Corrected % Control, rating). It counts as in vivo. Put shortly: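 Percent control, Abbott-corrected against diluent-sprayed plants, from microscope counts of live nymphs 8-9 days after treatment. Test solution at 200 ppm in 0.025% aqueous Tween 20 applied to both leaf sides of egg-infested cotton after a 5-6 day hatch period (82° F, 50% RH).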

For series [2], the system named is Green Peach Aphid (Myzus Persicae). The series is described as follows: Insecticidal test for green peach aphid in foliar spray assay (col. MYZUPE). It counts as in vivo. As to conditions: green peach aphid; for pest or weed control at 200 ppm: Myzus persicae, 72 h, read-out: MYZUPE 200 ppm (Corrected % Control, rating). Put shortly: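 Corrected % control derives from microscope counts of live aphids per plant, treated against diluent-only checks, 3 days after foliar spraying at ~25 °C and 40% RH. Test solution was 200 ppm in 0.025% aqueous Tween 20, applied to both leaf sides of infested cabbage seedlings, four pots each.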

The subject of series [3] is Cotton Aphid (Aphis Gossypii). The series can be described thus: Insecticidal test for cotton aphid in foliar spray assay (col. APHIGO). It counts as in vivo. The note with it: for pest or weed control at 200 ppm: Aphis gossypii, 72 h, read-out: APHIGO 200 ppm (Corrected % Control, rating). The method, then: The compounds were tested against cotton aphid, green peach aphid, and sweet potato whitefly using procedures described in the following examples and reported in Table 2.
In each case of Table 2, the rating scale is as follows at 200 ppm.
Insecticidal Test for Cotton Aphid (Aphis Gossypii) in Foliar Spray Assay
Squash or cotton seedlings with fully expanded cotyledon leaves were trimmed to one cotyledon per plant and infested with cotton aphid (wingless adult and nymph) one day prior to chemical application. Each plant was examined before chemical application to ensure uniform infestation (ca. 30-70 aphids per plant). Compounds (2 mg) were dissolved in 2 mL of acetone/methanol (1:1) solvent, forming stock solutions of 1000 ppm. The stock solutions were diluted 5× with 0.025% Tween 20 in H2O to obtain a solution at 200 ppm. A hand-held Devilbiss aspirator type sprayer was used to apply the spray solutions until runoff to both sides of the squash cotyledon leaves. Four plants (4 replications) were used for each concentration of each compound. Reference plants (solvent check) were sprayed with the diluent only. Treated plants were held in a holding room for three days at approximately 25° C. and 40% RH before the number of live aphids on each plant was recorded. Insecticidal activity was measured by Corrected % Control using Abbott's correction formula and presented in Table 2 (see col. “APHIGO”): Corrected % Control=100*(X−Y)/X • where X=No. of live aphids on solvent check plants • Y=No. of live aphids on treated plants

Broadly, the melting point is the temperature, or range, at which the solid turns liquid. Molecule `CSC(C)CC(=O)Nc1sc(-c2cncc(F)c2)nc1C` (stereo not drawn) [Compound 218] had a melting point of 130 to 133 °C. For the same molecule, the pest or weed control at 200 ppm in series [1] fell in the range of 80 to 100%. Besides, the pest or weed control at 200 ppm in series [2] lay in the range of 80 to 100%. The pest or weed control at 200 ppm in series [3] lay within 80 to 100%.

In turn, `C=CCSCC(C)C(=O)Nc1sc(-c2cncc(F)c2)nc1C` (stereo not drawn) [Compound 226] displayed a melting point of 76 to 79 °C. Also, the pest or weed control at 200 ppm in series [1] was in the range of 80 to 100%. In series [2], the pest or weed control at 200 ppm fell in the range of 80 to 100%. Further, the pest or weed control at 200 ppm in series [3] lay in the range of 80 to 100%.

`CN(C(=O)OC(C)(C)C)c1sc(-c2cccnc2)nc1Cl` [Compound 228, (4-chloro-2-pyridin-3-yl-thiazol-5-yl)-methyl-carbamic acid tert-butyl ester] yielded a melting point of 119 to 122 °C. Also, the pest or weed control at 200 ppm in series [1] lay within 80 to 100%. Moreover, in series [2], the pest or weed control at 200 ppm was 80 to 100%. Also, in series [3], the pest or weed control at 200 ppm lay within 80 to 100%.

`C=CC[S+]([O-])CC(C)C(=O)Nc1sc(-c2cncc(F)c2)nc1C` (stereo not drawn) [Compound 229] displayed a melting point of 170 to 174 °C. Also, in series [1], the pest or weed control at 200 ppm was under 80%. In series [2], the pest or weed control at 200 ppm lay within 80 to 100%. The pest or weed control at 200 ppm in series [3] lay in the range of 80 to 100%.

As to `CCN(C(=O)C(C)CS(C)(=O)=O)c1sc(-c2cccnc2)nc1C` (stereo not drawn) [Compound 235], the “BEMITA 200 ppm (Corrected % Control, rating)” value in series [1] is “A (80-100)”. In addition, the “MYZUPE 200 ppm (Corrected % Control, rating)” value in series [2] is recorded as “A (80-100)”. For the same molecule, in series [3], the “APHIGO 200 ppm (Corrected % Control, rating)” value is “A (80-100)”.

As for `CCN(C(=O)C(C)CSC)c1sc(-c2cncc(F)c2)nc1C` (stereo not drawn) [Compound 240], the pest or weed control at 200 ppm in series [1], in series [2] and in series [3] was 80 to 100% each time.

For `CN(C(=O)OC(C)(C)C)c1sc(-c2cccnc2)nc1Br` [Compound 242, (4-bromo-2-pyridin-3-yl-thiazol-5-yl)-methyl-carbamic acid tert-butyl ester], the melting point fell in the range of 88 to 91 °C. Also, the pest or weed control at 200 ppm in series [1] was 80 to 100%. Also, in series [2], the pest or weed control at 200 ppm is 80 to 100%. Further, the pest or weed control at 200 ppm in series [3] is under 80%.

As to `CN(C(=O)OC(C)(C)C)c1cnc(-c2cncc(F)c2)s1` [Compound 243], the melting point is 148 to 151 °C. Besides, in series [1], the pest or weed control at 200 ppm fell in the range of 80 to 100%. The pest or weed control at 200 ppm in series [2] was in the range of 80 to 100%. Moreover, in series [3], the pest or weed control at 200 ppm was 80 to 100%.

As to `CCN(C(=O)C(C)(C)CS(C)(=O)=O)c1sc(-c2cccnc2)nc1C` [Compound 250], the figures for the pest or weed control at 200 ppm in series [1], in series [2] and in series [3] were under 80%, 80 to 100% and under 80%, respectively.

As to `CCN(C(=O)C(C)C)c1sc(-c2cncc(F)c2)nc1C` [Compound 253], the pest or weed control at 200 ppm in series [1], in series [2] and in series [3] was 80 to 100% throughout.

With `CCN(C(=O)C(C)(C)CSC)c1sc(-c2cncc(F)c2)nc1C` [Compound 255], the pest or weed control at 200 ppm in series [1], in series [2] and in series [3] was 80 to 100% each time.

For `CSCC(C)C(=O)N(C)c1sc(-c2cncc(F)c2)nc1Cl` (stereo not drawn) [Compound 262], the pest or weed control at 200 ppm in series [1], in series [2] and in series [3] was 80 to 100% each time.

With `CC(C[S+](C)[O-])C(=O)N(C)c1sc(-c2cncc(F)c2)nc1Cl` (stereo not drawn) [Compound 270], the pest or weed control at 200 ppm in series [1] was 80 to 100%; in series [2] it was 80 to 100%; in series [3], under 80%.

With `CCN(C(=O)CCSC)c1sc(-c2cncc(F)c2)nc1Cl` [Compound 274], the pest or weed control at 200 ppm in series [1], in series [2] and in series [3] was 80 to 100% throughout.

Regarding `CCN(C(=O)C(C)CSC)c1sc(-c2cncc(F)c2)nc1Cl` (stereo not drawn) [Compound 279], the pest or weed control at 200 ppm in series [1], in series [2] and in series [3] was 80 to 100% throughout.
